# Source: patent US4163011A, “Peptide compounds and compositions” (priority 1978, dated 1979)
# Peptide text beside a SMILES is read from it.
# Legend:
# Format in all cases: in vivo
# Female Mice = experiment: Compensatory ovarian hypertrophy in unilaterally ovariectomized mice (Table II); conditions: 5 days after treatment, control 29.7 ± 8.4
# Experimental: (§1) B. The effect of threonine-serine-lysine on serum concentrations of FSH in the […] is measured 24 hr after intraperitoneal injection of threonine-serine-lysine to unilaterally ovariectomized mice. On day 5 after injection, the animals were sacrificed and ovarian weights recorded There are then determined compensatory ovarian hypertrophy (5 days after treatment) as well as the serum FSH (24 hr after treatment).
# GnRH-induced rise in FSH = experiment: Inhibition of GnRH-induced rise in FSH in the male rat (Table III); conditions: for Mean concentration of plasma FSH (± SE): GnRH-treated male rat
# Experimental: C. The antifertility effects of threonine-serine-lysine on the male rat are measured by their ability to inhibit GnRH-or gonadotropin releasing hormone-induced rise in FSH when threonine-serine-lysine is administered intravenously. In this test, both control and tripeptide-treated animals received GnRH in a phosphate buffered saline solution, followed by the administration of the tripeptide in the same buffer.
# adult female mice = experiment: Compensatory Ovarian Hypertrophy (COH) after unilateral ovariectomy (Table I); conditions: for COH (± SE): sacrificed day 5, control 45.5 ± 5.3
# Experimental: A. Compensatory Ovarian Hypertrophy (COH) is an effect in standard laboratory (mammalian) animals for assessing antigonadotrophic activity by determining the increase in weight of the remaining gonad after unilateral gonadectomy. Procedures for COH measurement in female rats are described in Ramirez, V.D., et al., Endocrinology 95:475 (1974). According to these known procedures threonine-serine-lysine, prepared in Example 1, is administered intraperitoneally to adult female mice on the same day as a unilateral ovariectomy is performed. On day 5, both experimental and control animals are sacrificed and mean ovarian weights are obtained.
# Serum FSH = Serum FSH in unilaterally ovariectomized mice (Table II); conditions: 24 hr after treatment, control 296.8 ± 375
# Experimental: as §1
smiles,measurement,setting,value
C[C@@H](O)[C@H](N)C(=O)N[C@@H](CO)C(=O)N[C@@H](CCCCN)C(=O)O [threonine-serine-lysine] (H-Thr-Ser-Lys-OH),COH (± SE),Female Mice; dose 35.1 ng intraperitoneal,12.6 ± 10.9%
same,COH (± SE),Female Mice; dose 70.3 ng intraperitoneal,21.9 ± 8.0%
same,COH (± SE),Female Mice; dose 175.7 ng intraperitoneal,12.9 ± 5.0%
same,COH (± SE),Female Mice; dose 351.7 ng intraperitoneal,21.1 ± 7.8%
same,Mean concentration of plasma FSH (± SE),"GnRH-induced rise in FSH; dose 1.48 ng intravenously, 0 min, control 362.5 ± 20.7",302.2 ± 26.2 ng/mL
same,Mean concentration of plasma FSH (± SE),"GnRH-induced rise in FSH; dose 1.48 ng intravenously, 15 min, control 1753.4 ± 450.6",338.4 ± 38.8 ng/mL
same,Mean concentration of plasma FSH (± SE),"GnRH-induced rise in FSH; dose 1.48 ng intravenously, 30 min, control 1701.6 ± 720.6",592.5 ± 217.6 ng/mL
same,Mean concentration of plasma FSH (± SE),"GnRH-induced rise in FSH; dose 1.48 ng intravenously, 60 min, control 247.8 ± 14.0",586.5 ± 301.3 ng/mL
same,Mean concentration of plasma FSH (± SE),"GnRH-induced rise in FSH; dose 14.8 ng intravenously, 0 min, control 362.5 ± 20.7",45.6 ± 52.3 ng/mL
same,Mean concentration of plasma FSH (± SE),"GnRH-induced rise in FSH; dose 14.8 ng intravenously, 15 min, control 1753.4 ± 450.6",402.9 ± 117.7 ng/mL
same,Mean concentration of plasma FSH (± SE),"GnRH-induced rise in FSH; dose 14.8 ng intravenously, 30 min, control 1701.6 ± 720.6",472.7 ± 76.9 ng/mL
same,Mean concentration of plasma FSH (± SE),"GnRH-induced rise in FSH; dose 14.8 ng intravenously, 60 min, control 247.8 ± 14.0",684.5 ± 142.0 ng/mL
same,Mean concentration of plasma FSH (± SE),"GnRH-induced rise in FSH; dose 148 ng intravenously, 0 min, control 362.5 ± 20.7",43.9 ± 85.6 ng/mL
same,Mean concentration of plasma FSH (± SE),"GnRH-induced rise in FSH; dose 148 ng intravenously, 15 min, control 1753.4 ± 450.6",646.1 ± 198.0 ng/mL
same,Mean concentration of plasma FSH (± SE),"GnRH-induced rise in FSH; dose 148 ng intravenously, 30 min, control 1701.6 ± 720.6",1407.8 ± 499.6 ng/mL
same,Mean concentration of plasma FSH (± SE),"GnRH-induced rise in FSH; dose 148 ng intravenously, 60 min, control 247.8 ± 14.0",1279.6 ± 180.8 ng/mL
same,"GnRH-induced rise in FSH, result in words","GnRH-induced rise in FSH; intravenous, male rat, Table III doses",FSH suppression
same,COH (± SE),adult female mice; dose 186.1 ng intraperitoneally on day of unilateral ovariectomy,34.6 ± 6.8%
same,COH (± SE),adult female mice; dose 372.2 ng intraperitoneally on day of unilateral ovariectomy,11.1 ± 15.1%
same,"Compensatory ovarian hypertrophy, result in words","adult female mice; intraperitoneal, Table I doses",reduced in a dose-dependent manner
same,Serum FSH (± SE),Serum FSH; dose 35.1 ng intraperitoneal,254.4 ± 88.7 ng/mL
same,Serum FSH (± SE),Serum FSH; dose 70.3 ng intraperitoneal,377.0 ± 56.9 ng/mL
same,Serum FSH (± SE),Serum FSH; dose 175.7 ng intraperitoneal,165.0 ± 22.5 ng/mL
same,Serum FSH (± SE),Serum FSH; dose 351.7 ng intraperitoneal,179.0 ± 60.9 ng/mL
